Where a SMILES comes first, the peptide text is derived from it. [ ]: non-standard residue; d: D form. NMeF = CN[C@@H](Cc1ccccc1)C(=O)O; dNMeF = CN[C@H](Cc1ccccc1)C(=O)O; NMeL = CN[C@@H](CC(C)C)C(=O)O; dNMeL = CN[C@H](CC(C)C)C(=O)O; NMeV = CN[C@H](C(=O)O)C(C)C; NMeA = CN[C@@H](C)C(=O)O; dNMeA = CN[C@H](C)C(=O)O; Sar = CNCC(=O)O
Assays:
in vitro = settings: PAMPA, PAMPA_Papp_Avg
[1] = PAMPA

Work on `CC[C@@H](C)[C@H]1NC(=O)[C@@H](Cc2ccccc2)NC(=O)[C@H](CC(C)C)NC(=O)[C@@H](C)N(C)C(=O)[C@@H](CC(C)C)NC(=O)[C@H](CC(C)C)NC(=O)[C@H]2CCCN2C(=O)[C@@H]2CCCN2C(=O)[C@@H](C)NC(=O)[C@H]2CCCN2C1=O` [Design D10.37, DLEU *DALA LEU DPHE DILE DPRO DALA PRO DPRO LEU] (cyclo(L[dF][dI][dP][dA]P[dP]L[dL][dNMeA])) yielded a Papp (in vitro) of 0.654 ×10⁻⁶ cm/s, a PAMPA_R1 [1] of 7.62E-07 and a PAMPA_R3 [1] of 6.36E-07.

`CC[C@@H](C)[C@H]1NC(=O)[C@H]2CCCN2C(=O)[C@@H]2CCCN2C(=O)[C@@H](CC(C)C)NC(=O)[C@H](C)NC(=O)[C@@H](CC(C)C)N(C)C(=O)[C@@H](C)N(C)C(=O)[C@@H]2CCCN2C(=O)[C@@H]([C@H](C)CC)NC(=O)[C@@H](CC(C)C)N(C)C1=O` [Design D10.39, PRO *DALA *DLEU ALA DLEU PRO DPRO DILE *DLEU DILE] (cyclo(A[dL]P[dP][dI][dNMeL][dI]P[dNMeA][dNMeL])) gave a Papp (in vitro) of 1.48 ×10⁻⁶ cm/s, a PAMPA_R1 [1] of 1.69E-06 and a PAMPA_R3 [1] of 1.47E-06.

Work on `CC(C)C[C@H]1NC(=O)[C@@H](C(C)C)NC(=O)[C@H](CC(C)C)N(C)C(=O)[C@@H](Cc2ccccc2)NC(=O)[C@H](CC(C)C)N(C)C(=O)[C@H]2CCCN2C(=O)[C@@H]2CCCN2C(=O)[C@H]2CCCN2C(=O)[C@@H](C(C)C)NC(=O)[C@H]2CCCN2C1=O` [Design D10.42, DVAL DLEU DPRO DVAL DPRO PRO DPRO *LEU DPHE *LEU] (cyclo([dP][NMeL][dF][NMeL][dV][dL][dP][dV][dP]P)) yielded a Papp (in vitro) of 0.71 ×10⁻⁶ cm/s, a PAMPA_R1 [1] of 7.55E-07 and a PAMPA_R3 [1] of 8.78E-07.

In the case of `CC(C)C[C@@H]1C(=O)N[C@@H](C)C(=O)N[C@H](CC(C)C)C(=O)N2CCC[C@H]2C(=O)N[C@H](C)C(=O)N2CCC[C@@H]2C(=O)N2CCC[C@H]2C(=O)N[C@H](C(C)C)C(=O)N[C@H](CC(C)C)C(=O)N(C)[C@H](CC(C)C)C(=O)N1C` [Design D10.43, DALA DPRO PRO DVAL DLEU *DLEU *DLEU ALA DLEU PRO] (cyclo([dV][dL][dNMeL][dNMeL]A[dL]P[dA][dP]P)), the Papp (in vitro) is reported as 0.161 ×10⁻⁶ cm/s, the PAMPA_R1 [1] is reported as 1.81E-07 and the PAMPA_R3 [1] is reported as 1.70E-07.

For `CC[C@H](C)[C@@H]1NC(=O)[C@@H](Cc2ccccc2)NC(=O)[C@@H](C)NC(=O)[C@@H](C(C)C)NC(=O)[C@H](CCSC)NC(=O)[C@@H]2CCCN2C(=O)[C@H]2CCCN2C(=O)[C@@H]2CCCN2C(=O)[C@@H](C)N(C)C(=O)[C@@H](CC(C)C)N(C)C1=O` [Design D10.45, DVAL DALA DPHE ILE *DLEU *DALA PRO DPRO PRO MET] (cyclo(M[dV][dA][dF]I[dNMeL][dNMeA]P[dP]P)), the Papp (in vitro) was 0.487 ×10⁻⁶ cm/s, the PAMPA_R1 [1] was 5.38E-07 and the PAMPA_R3 [1] was 3.72E-07.

In the case of `CC[C@@H](C)[C@H]1NC(=O)[C@@H](CC(C)C)NC(=O)[C@@H](CC(C)C)NC(=O)[C@H]2CCCN2C(=O)[C@H](CC(C)C)N(C)C(=O)[C@@H](C)N(C)C(=O)[C@@H]2CCCN2C(=O)[C@@H]([C@H](C)CC)NC(=O)[C@@H](C(C)C)NC(=O)[C@@H]2CCCN2C1=O` [Design D10.46, PRO DVAL DILE PRO *DALA *LEU DPRO DLEU DLEU DILE] (cyclo([NMeL][dP][dL][dL][dI]P[dV][dI]P[dNMeA])), the Papp (in vitro) is reported as 0.684 ×10⁻⁶ cm/s, the PAMPA_R1 [1] is reported as 8.07E-07 and the PAMPA_R3 [1] is reported as 6.41E-07.

`CC(C)C[C@@H]1NC(=O)[C@@H](Cc2ccccc2)N(C)C(=O)[C@H](C(C)C)NC(=O)[C@H](C)NC(=O)[C@@H](C)NC(=O)[C@@H](Cc2ccccc2)N(C)C(=O)[C@@H]2CCCN2C(=O)[C@H](C(C)C)NC(=O)[C@@H]2CCCN2C(=O)[C@@H](C)NC1=O` [Design D10.48, DALA PRO VAL PRO *DPHE DALA ALA VAL *DPHE LEU] (cyclo(AV[dNMeF]L[dA]PVP[dNMeF][dA])) gave a Papp (in vitro) of 0.405 ×10⁻⁶ cm/s, a PAMPA_R1 [1] of 3.54E-07 and a PAMPA_R3 [1] of 4.59E-07.

With `CC(C)C[C@@H]1NC(=O)[C@H](C)NC(=O)[C@@H]2CCCN2C(=O)[C@H]2CCCN2C(=O)[C@H](Cc2ccccc2)NC(=O)[C@H]2CCCN2C(=O)[C@@H](Cc2ccccc2)N(C)C(=O)[C@@H]2CCCN2C(=O)[C@@H](C)NC(=O)[C@H](CC(C)C)NC1=O` [Design D10.49, DALA PRO *DPHE DPRO PHE DPRO PRO ALA LEU LEU] (cyclo(ALL[dA]P[dNMeF][dP]F[dP]P)) the Papp (in vitro) was 0.17 ×10⁻⁶ cm/s, the PAMPA_R1 [1] was 2.36E-07 and the PAMPA_R3 [1] was 1.35E-07.

`CC[C@@H](C)[C@H]1NC(=O)[C@H](Cc2ccccc2)N(C)C(=O)[C@@H](CC(C)C)N(C)C(=O)[C@H](C(C)C)NC(=O)[C@H](C)NC(=O)[C@@H]2CCCN2C(=O)[C@H](CC(C)C)N(C)C(=O)[C@@H](Cc2ccccc2)N(C)C(=O)[C@H](C)N(C)C(=O)[C@H](C)N(C)C1=O` [Design D10.56, *DPHE *LEU PRO ALA VAL *DLEU *PHE DILE *ALA *ALA] (cyclo(AV[dNMeL][NMeF][dI][NMeA][NMeA][dNMeF][NMeL]P)) showed a Papp (in vitro) of 9.02 ×10⁻⁶ cm/s, a PAMPA_R1 [1] of 9.15E-06 and a PAMPA_R3 [1] of 8.95E-06.

For `CC(C)C[C@@H]1NC(=O)[C@@H](CC(C)C)N(C)C(=O)[C@@H]2CCCN2C(=O)[C@H](CC(C)C)N(C)C(=O)[C@@H](C)NC(=O)[C@@H](CC(C)C)N(C)C(=O)[C@@H]2CCCN2C(=O)CN(C)C(=O)[C@H](CC(C)C)N(C)C(=O)[C@H](Cc2ccccc2)NC1=O` [Design D10.57, *LEU *GLY PRO *DLEU DALA *LEU PRO *DLEU LEU PHE] (cyclo(F[NMeL][Sar]P[dNMeL][dA][NMeL]P[dNMeL]L)), the Papp (in vitro) was 3.05 ×10⁻⁶ cm/s, the PAMPA_R1 [1] was 2.94E-06 and the PAMPA_R3 [1] was 3.42E-06.

`C[C@H]1NC(=O)[C@@H](Cc2ccccc2)NC(=O)[C@H](Cc2ccccc2)N(C)C(=O)[C@H](Cc2ccccc2)N(C)C(=O)[C@@H](Cc2ccccc2)NC(=O)[C@H]2CCCN2C(=O)CNC(=O)[C@@H](C)NC(=O)[C@@H]2CCCN2C(=O)[C@@H](Cc2ccccc2)NC1=O` [Design D10.62, DALA GLY DPRO DPHE *PHE *PHE DPHE DALA DPHE PRO] (cyclo(G[dP][dF][NMeF][NMeF][dF][dA][dF]P[dA])) gave a Papp (in vitro) of 4.23 ×10⁻⁶ cm/s, a PAMPA_R1 [1] of 4.48E-06 and a PAMPA_R3 [1] of 4.48E-06.

For `CC[C@@H](C)[C@H]1NC(=O)[C@H](C)NC(=O)[C@@H](CC(C)C)N(C)C(=O)[C@H](CC(C)C)N(C)C(=O)[C@H](C(C)C)NC(=O)[C@@H]2CCCN2C(=O)[C@@H](CC(C)C)N(C)C(=O)[C@@H](C)N(C)C(=O)[C@@H](Cc2ccccc2)NC(=O)[C@@H]2CCCN2C(=O)[C@H]2CCCN2C1=O` [Design D11.6, VAL *LEU *DLEU ALA DILE DPRO PRO DPHE *DALA *DLEU PRO] (cyclo([dF][dNMeA][dNMeL]PV[NMeL][dNMeL]A[dI][dP]P)), the Papp (in vitro) was 0.949 ×10⁻⁶ cm/s, the PAMPA_R1 [1] was 1.24E-06 and the PAMPA_R3 [1] was 7.58E-07.

In the case of `CC(C)C[C@@H]1NC(=O)[C@@H](C)NC(=O)[C@H]2CCCN2C(=O)[C@@H]2CCCN2C(=O)[C@@H](C(C)C)NC(=O)[C@@H](CC(C)C)N(C)C(=O)[C@H]2CCCN2C(=O)[C@H]2CCCN2C(=O)[C@@H](C)N(C)C(=O)[C@H](CC(C)C)N(C)C(=O)[C@@H](Cc2ccccc2)NC1=O` [Design D11.16, LEU DPHE *LEU *DALA DPRO DPRO *DLEU DVAL PRO DPRO DALA] (cyclo(L[dF][NMeL][dNMeA][dP][dP][dNMeL][dV]P[dP][dA])), the Papp (in vitro) is reported as 0.43 ×10⁻⁶ cm/s, the PAMPA_R1 [1] is reported as 3.70E-07 and the PAMPA_R3 [1] is reported as 4.55E-07.

In the case of `CC[C@H](C)[C@@H]1NC(=O)[C@H](C(C)C)NC(=O)[C@@H](CC(C)C)N(C)C(=O)[C@H](Cc2ccccc2)NC(=O)[C@@H](CC(C)C)N(C)C(=O)[C@@H](C)N(C)C(=O)[C@H]2CCCN2C(=O)[C@@H]2CCCN2C(=O)[C@H](CC(C)C)NC(=O)[C@@H](C)N(C)C(=O)[C@@H]2CCCN2C1=O` [Design D11.20, PRO *DALA LEU PRO DPRO *DALA *DLEU PHE *DLEU VAL ILE] (cyclo(F[dNMeL]VIP[dNMeA]LP[dP][dNMeA][dNMeL])), the Papp (in vitro) is reported as 1.29 ×10⁻⁶ cm/s, the PAMPA_R1 [1] is reported as 1.21E-06 and the PAMPA_R3 [1] is reported as 9.60E-07.

Compound `CC[C@H](C)[C@@H]1NC(=O)[C@@H]2CCCN2C(=O)[C@H]2CCCN2C(=O)[C@@H](Cc2ccccc2)NC(=O)[C@@H](CC(C)C)N(C)C(=O)[C@H](C(C)C)NC(=O)[C@@H](CC(C)C)NC(=O)[C@@H]2CCCN2C(=O)[C@H]2CCCN2C(=O)[C@@H](C)N(C)C(=O)[C@H](C(C)C)N(C)C1=O` [Design D11.21, PRO ILE *VAL *DALA DPRO PRO DLEU VAL *DLEU DPHE DPRO] (cyclo(I[NMeV][dNMeA][dP]P[dL]V[dNMeL][dF][dP]P)) has a Papp (in vitro) of 0.24 ×10⁻⁶ cm/s, a PAMPA_R1 [1] of 2.47E-07 and a PAMPA_R3 [1] of 2.17E-07.

For `CC(C)C[C@H]1NC(=O)[C@@H](C)NC(=O)[C@@H](C)NC(=O)[C@H]2CCCN2C(=O)[C@@H]2CCCN2C(=O)[C@H]2CCCN2C(=O)[C@@H](C)NC(=O)[C@@H](Cc2ccccc2)N(C)C(=O)[C@H]2CCCN2C(=O)[C@@H](CC(C)C)NC(=O)[C@@H](CC(C)C)NC1=O` [Design D11.25, DLEU DPRO *DPHE DALA DPRO PRO DPRO DALA DALA DLEU DLEU] (cyclo([dP][dA][dA][dL][dL][dL][dP][dNMeF][dA][dP]P)), the Papp (in vitro) was 0.405 ×10⁻⁶ cm/s, the PAMPA_R1 [1] was 3.92E-07 and the PAMPA_R3 [1] was 3.97E-07.

Work on `CC[C@H](C)[C@@H]1NC(=O)[C@H](C(C)C)N(C)C(=O)[C@H]2CCCN2C(=O)[C@H]([C@@H](C)CC)NC(=O)[C@@H](CC(C)C)N(C)C(=O)[C@@H](C)NC(=O)[C@@H]2CCCN2C(=O)[C@H]2CCCN2C(=O)[C@H](CC(C)C)NC(=O)[C@@H](Cc2ccccc2)NC(=O)[C@H](CC(C)C)NC(=O)[C@H]2CCCN2C1=O` [Design D12.3, DPRO *VAL ILE DPRO LEU DPHE LEU DPRO PRO DALA *DLEU ILE] (cyclo([dA][dNMeL]I[dP][NMeV]I[dP]L[dF]L[dP]P)) yielded a Papp (in vitro) of 0.789 ×10⁻⁶ cm/s, a PAMPA_R1 [1] of 7.65E-07 and a PAMPA_R3 [1] of 9.01E-07.

— publication PMC9490236, “Accurate de novo design of membrane-traversing macrocycles” (Cell, 2022)
